From patent US7271162B2, “Cycloocta[b][1,4]diazepino[6,7,1-hi]indoles and derivatives” (Wyeth, priority 2000, dated 2007)
Counter-ions that a name gives are not always drawn. Like-named read-outs stand apart in the source and are kept apart here.

Legend:
human 5-HT2C receptor = target: T1, human 5-HT2C receptor (Homo sapiens, UniProt P28335); experiment: Stimulation of [3H] Inositol Monophosphate Production by 5HT2C Agonists in transfected CHO cells; details: read-out: 5HT2C Stimulation of IP3 % Emax (5HT, 100%)
T1 sequence (P28335 33-458): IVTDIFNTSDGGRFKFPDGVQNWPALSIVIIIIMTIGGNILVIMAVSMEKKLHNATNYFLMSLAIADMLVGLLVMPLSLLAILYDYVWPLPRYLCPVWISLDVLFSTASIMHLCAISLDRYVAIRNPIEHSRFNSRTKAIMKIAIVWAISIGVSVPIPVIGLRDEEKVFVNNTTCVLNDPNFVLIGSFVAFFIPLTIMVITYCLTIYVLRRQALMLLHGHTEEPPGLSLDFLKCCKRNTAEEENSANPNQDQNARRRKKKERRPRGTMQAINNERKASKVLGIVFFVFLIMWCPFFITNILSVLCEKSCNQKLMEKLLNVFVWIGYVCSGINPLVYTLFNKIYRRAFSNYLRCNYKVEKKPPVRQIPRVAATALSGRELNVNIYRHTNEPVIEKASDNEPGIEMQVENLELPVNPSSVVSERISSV
Description: One (1) ml of maintenance medium containing 1 μCi/ml myo-[^3H] inositol was added to each well. After 48 hours labeling, the cells were washed once with 0.5 ml DMEM containing 25 mM HEPES and 10 mM LiCl, then preincubated with the medium for 30 min (antagonists were included in this period if tested). At the end of the preincubation, the medium was removed, the cells were then incubated with test compounds (in presence of antagonists if needed) for 30 min. The reaction was terminated by removal of the incubation solution and addition of 0.5 ml ice-cold 5% PCA, followed by 15 to 30 min incubation on ice. 200 μl of 0.5 M Tes/1.5 M K2CO3 was added to each well to neutralize to pH 7, and plates were left on ice for another 15 to 30 min to precipitate all salts. The liquid and solid phases were separated by centrifugation.
A portion (350 μl) of the upper aqueous phase was applied to Dowex AG-1X8 (formate form, 100-200 mesh) columns. The columns were then washed stepwise with 10 ml of water and 10 ml of 25 mM ammonium formate to remove free myo-[^3H]inositol and deacylated phosphoinositol, respectively. Finally 10 ml of 0.2 M ammonium formate solution was applied to the columns to elute [^3H] inositol monophosphate ([^3H] IP1) directly into scintillation vials. Of this eluate, 1 ml was used to determine radioactivity by scintillation counting. […]

[1] = target: T2, human 5-hydroxytryptamine2C (h5HT2C) receptor (Homo sapiens, UniProt P28335); experiment: 5HT2C Receptor Binding Test Procedure ([125I] DOI displacement, membranes of transfected CHO cells)
T2 construct: expressed in transfected cells; host or cells: CHO (Chinese Hamster Ovary) cells; membrane preparation
T2 sequence (P28335 33-458): T1 sequence (P28335 33-458)

Work on c1cc2c3c(c1)c1c(n3CCNC2)CCCCCC1 (as salt: hydrochloride) [Example 1, 1,2,3,4,8,9,10,11,12,13-Decahydrocycloocta[b][1,4]diazepino[6,7,1-hi]indole] yielded a melting point of 316 to 318 °C.

Compound c1cc2c3c(c1)c1c(n3CCNC2)CCCCCC1 [Example 1, 1,2,3,4,8,9,10,11,12,13-Decahydrocycloocta[b][1,4]diazepino[6,7,1-hi]indole] has an Emax (human 5-HT2C receptor) of 120%.

Work on c1cc2c3c(c1)C1CCCCCCC1N3CCNC2 (stereo not drawn) [Example 2, 1,2,3,4,7b,8,9,10,11,12,13,13a-Dodecahydrocycloocta[b][1.4]diazepino[6,7,1-hi]indole] yielded a Ki [1] of 65 nM and a melting point of 58 to 63 °C.

In the case of CSc1ccc2c(c1)C(N1CCN(C)CC1)Cc1ccccc1S2 (stereo not drawn) [Methiothepin], the Ki ([1]; reference compounds, [125I] DOI binding, h5HT2C CHO membranes, read-out: Ki value and 95% confidence interval) is reported as 4.6 nM.

COc1cc(CC(C)N)c(OC)cc1I (stereo not drawn) [[^125I] DOI] gave a Kd ([1]; read-out: dissociation constant, KD of [125I] DOI at the human serotonin 5HT2C receptor, saturation binding with increasing concentrations of [125I] DOI) of 0.4 nM.
